Assay results from BigSolDB 2.1.

CC(N)=S
Conditions	solubility (mole fraction)
in 2-butanone, 272.85 K	0.137
in 2-butanone, 279.35 K	0.157
in 2-butanone, 282.55 K	0.167
in 2-butanone, 287.95 K	0.185
in 2-butanone, 293.35 K	0.205
in 2-butanone, 297.85 K	0.223
in 2-butanone, 303.05 K	0.244
in 2-butanone, 308.55 K	0.268
in 2-butanone, 313.15 K	0.289
in 2-butanone, 318.05 K	0.312
in 2-butanone, 323.95 K	0.343
in 2-pentanone, 272.85 K	0.111
in 2-pentanone, 279.35 K	0.127
in 2-pentanone, 282.55 K	0.136
in 2-pentanone, 287.95 K	0.152
in 2-pentanone, 293.35 K	0.169
in 2-pentanone, 297.85 K	0.183
in 2-pentanone, 303.05 K	0.202
in 2-pentanone, 308.55 K	0.222
in 2-pentanone, 313.15 K	0.24
in 2-pentanone, 318.05 K	0.26
in 2-pentanone, 323.95 K	0.286
in acetone, 272.85 K	0.144
in acetone, 279.35 K	0.165
in acetone, 282.55 K	0.176
in acetone, 287.95 K	0.195
in acetone, 293.35 K	0.216
in acetone, 297.85 K	0.234
in acetone, 303.05 K	0.257
in acetone, 308.55 K	0.282
in acetone, 313.15 K	0.304
in acetone, 318.05 K	0.329
in acetone, 323.95 K	0.36
in acetonitrile, 272.85 K	0.0478
in acetonitrile, 279.35 K	0.061
in acetonitrile, 282.55 K	0.0685
in acetonitrile, 287.95 K	0.0828
in acetonitrile, 293.35 K	0.0993
in acetonitrile, 297.85 K	0.115
in acetonitrile, 303.05 K	0.136
in acetonitrile, 308.55 K	0.16
in acetonitrile, 313.15 K	0.184
in acetonitrile, 318.05 K	0.211
in acetonitrile, 323.95 K	0.249
in ethanol, 273.15 K	0.064
in ethanol, 277.95 K	0.0752
in ethanol, 283.45 K	0.0901
in ethanol, 288.25 K	0.105
in ethanol, 293.25 K	0.122
in ethanol, 298.15 K	0.141
in ethanol, 302.35 K	0.159
in ethanol, 308.05 K	0.186
in ethanol, 313.35 K	0.214
in ethanol, 318.25 K	0.243
in ethanol, 323.15 K	0.274
in ethyl acetate, 272.85 K	0.0646
in ethyl acetate, 279.35 K	0.0773
in ethyl acetate, 282.55 K	0.0843
in ethyl acetate, 287.95 K	0.0969
in ethyl acetate, 293.35 K	0.111
in ethyl acetate, 297.85 K	0.124
in ethyl acetate, 303.05 K	0.14
in ethyl acetate, 308.55 K	0.158
in ethyl acetate, 313.15 K	0.175
in ethyl acetate, 318.05 K	0.194
in ethyl acetate, 323.95 K	0.219
in ethyl formate, 272.85 K	0.0427
in ethyl formate, 279.35 K	0.0536
in ethyl formate, 282.55 K	0.0596
in ethyl formate, 287.95 K	0.0711
in ethyl formate, 293.35 K	0.0843
in ethyl formate, 297.85 K	0.0965
in ethyl formate, 303.05 K	0.113
in ethyl formate, 308.55 K	0.131
in ethyl formate, 313.15 K	0.149
in ethyl formate, 318.05 K	0.17
in ethyl formate, 323.95 K	0.198
in isobutanol, 273.15 K	0.0323
in isobutanol, 277.95 K	0.0401
in isobutanol, 283.45 K	0.0508
in isobutanol, 288.25 K	0.0621
in isobutanol, 293.25 K	0.0761
in isobutanol, 298.15 K	0.0922
in isobutanol, 302.35 K	0.108
in isobutanol, 308.05 K	0.133
in isobutanol, 313.35 K	0.16
in isobutanol, 318.25 K	0.189
in isobutanol, 323.15 K	0.223
in isopentanol, 273.15 K	0.0333
in isopentanol, 277.95 K	0.0415
in isopentanol, 283.45 K	0.0528
in isopentanol, 288.25 K	0.0648
in isopentanol, 293.25 K	0.0796
in isopentanol, 298.15 K	0.0968
in isopentanol, 302.35 K	0.114
in isopentanol, 308.05 K	0.141
in isopentanol, 313.35 K	0.171
in isopentanol, 318.25 K	0.203
in isopentanol, 323.15 K	0.239
in isopropanol, 273.15 K	0.0439
in isopropanol, 277.95 K	0.0532
in isopropanol, 283.45 K	0.066
in isopropanol, 288.25 K	0.0792
in isopropanol, 293.25 K	0.0949
in isopropanol, 298.15 K	0.113
in isopropanol, 302.35 K	0.13
in isopropanol, 308.05 K	0.158
in isopropanol, 313.35 K	0.186
in isopropanol, 318.25 K	0.216
in isopropanol, 323.15 K	0.251
in methanol, 273.15 K	0.0894
in methanol, 277.95 K	0.104
in methanol, 283.45 K	0.123
in methanol, 288.25 K	0.141
in methanol, 293.25 K	0.163
in methanol, 298.15 K	0.186
in methanol, 302.35 K	0.208
in methanol, 308.05 K	0.241
in methanol, 313.35 K	0.275
in methanol, 318.25 K	0.31
in methanol, 323.15 K	0.348
in methyl acetate, 272.85 K	0.0603
in methyl acetate, 279.35 K	0.074
in methyl acetate, 282.55 K	0.0815
in methyl acetate, 287.95 K	0.0957
in methyl acetate, 293.35 K	0.112
in methyl acetate, 297.85 K	0.126
in methyl acetate, 303.05 K	0.145
in methyl acetate, 308.55 K	0.167
in methyl acetate, 313.15 K	0.187
in methyl acetate, 318.05 K	0.211
in methyl acetate, 323.95 K	0.242
in n-butanol, 273.15 K	0.0417
in n-butanol, 277.95 K	0.0524
in n-butanol, 283.45 K	0.0674
in n-butanol, 288.25 K	0.0833
in n-butanol, 293.25 K	0.103
in n-butanol, 298.15 K	0.126
in n-butanol, 302.35 K	0.149
in n-butanol, 308.05 K	0.186
in n-butanol, 313.35 K	0.227
in n-butanol, 318.25 K	0.271
in n-butanol, 323.15 K	0.321
in n-pentanol, 273.15 K	0.0507
in n-pentanol, 277.95 K	0.0598
in n-pentanol, 283.45 K	0.0716
in n-pentanol, 288.25 K	0.0835
in n-pentanol, 293.25 K	0.0975
in n-pentanol, 298.15 K	0.113
in n-pentanol, 302.35 K	0.127
in n-pentanol, 308.05 K	0.149
in n-pentanol, 313.35 K	0.172
in n-pentanol, 318.25 K	0.196
in n-pentanol, 323.15 K	0.222
in n-propanol, 273.15 K	0.0503
in n-propanol, 277.95 K	0.0608
in n-propanol, 283.45 K	0.0748
in n-propanol, 288.25 K	0.0891
in n-propanol, 293.25 K	0.106
in n-propanol, 298.15 K	0.126
in n-propanol, 302.35 K	0.144
in n-propanol, 308.05 K	0.173
in n-propanol, 313.35 K	0.203
in n-propanol, 318.25 K	0.236
in n-propanol, 323.15 K	0.272
